Results from PMC9698663, “Testing Serum Albumins and Cyclodextrins as Potential Binders of the Mycotoxin Metabolites Alternariol-3-Sulfate, Alternariol-9-Monomethylether and Alternariol-9-Monomethylether-3-Sulfate” (International Journal of Molecular Sciences, 2022).
Counter-ions that a name gives are not always drawn. Like-named read-outs stand apart in the source and are kept apart here.

Assays:
[1] = target: T1, porcine serum albumin (PSA) (Sus scrofa, UniProt P08835); assay: Fluorescence quenching of porcine serum albumin by mycotoxins; assay type: binding; conditions: for PSA logKSV (±SEM): Stern–Volmer quenching constant KSV in L/mol, linear fitting
T1 construct: purchased Merck (Darmstadt, Germany)
Experimental: (§1) Fluorescence emission spectra were collected employing a Hitachi F-4500 fluorescence spectrophotometer (Tokyo, Japan) at 25 °C and in the presence of air. UV–Vis absorption spectra of AS, AME, and AMS were recorded using a Jasco V730 UV–Vis spectrophotometer (Tokyo, Japan). In fluorescence spectroscopic studies, the inner-filter effects of mycotoxins were corrected as has been previously reported.
(§2) Then, fluorescence quenching studies were also performed, where increasing amounts of AS, AME, or AMS (final concentrations: 0–5 μM) were added to 2 μM concentrations of albumins (HSA, BSA, PSA, or RSA), after which emission spectra were recorded (λex = 295 nm). After the correction of the inner-filter effects, mycotoxin-induced changes were evaluated at 340 nm.
(§3) Quenching experiments were evaluated by employing the graphical application of the Stern–Volmer equation (linear fitting) and using HyperQuad2006 software (non-linear fitting). Stern–Volmer quenching constants (KSV; unit: L/mol) were determined based on the Stern–Volmer equation [30]:(1) I0/I=1+KSV×Q where I0 and I are the fluorescence emission intensities of albumin in the absence and presence of the quencher (mycotoxins), respectively; [Q] is the molar (mol/L) concentration of mycotoxins. Binding constants (K; unit: L/mol) were calculated using HyperQuad2006 software, as has been previously reported.

[2] = target: T2, human serum albumin (HSA) (Homo sapiens, UniProt P02768); assay: Fluorescence quenching of human serum albumin by mycotoxins; assay type: binding; design: purchased Merck (Darmstadt, Germany); conditions: for HSA logKSV (±SEM): Stern–Volmer quenching constant KSV in L/mol, linear fitting
Experimental: as §1, §2, §3

[3] = Fluorescence spectroscopic study of mycotoxin–SGD complexes; assay type: binding; conditions: for SGD logK (±SEM) BH-Plot / SGD logK (±SEM) Hyperquad: binding constant K in L/mol; for SGD logK (±SEM) BH-Plot: Benesi–Hildebrand plot; for SGD logK (±SEM) BH-Plot / SGD logK (±SEM) Hyperquad / logK with SGD (approximate): sodium acetate buffer pH 5.0; for logK of mycotoxin–SGD complexes at pH 10.0: sodium borate buffer pH 10.0
Experimental: as §1
(§4) To examine the interaction of mycotoxins with the two CDs selected (SBECD and SGD), increasing amounts of the CDs (final concentrations: 0–10 mM) were added to mycotoxins (each 1 μM), then fluorescence emission spectra were recorded (λex = 335 nm for AS/AMS and 350 nm for AME; λem = 455 nm for AS, 485 nm for AME, and 460 nm for AMS). Binding constants (K, unit: L/mol) of mycotoxin–CD complexes were calculated employing the graphical application of the Benesi–Hildebrand equation (linear fitting) and using Hyperquad software (non-linear fitting). The Benesi–Hildebrand equation [25, 43] has been described as:(2) F0/F−F0=1/A+1/A×K×CD^n where, F0 and F are the fluorescence emission intensities of the mycotoxin in the absence and presence of CDs, respectively. [CD] is the molar concentration (mol/L) of the CD, while A is a constant, and n is the number of binding sites. Hyperquad evaluations were performed as has been previously reported.

[4] = Fluorescence spectroscopic study of mycotoxin–SBECD complexes; assay type: binding; conditions: for SBECD logK (±SEM) BH-Plot / SBECD logK (±SEM) Hyperquad: binding constant K in L/mol; for SBECD logK (±SEM) BH-Plot: Benesi–Hildebrand plot; for SBECD logK (±SEM) BH-Plot / SBECD logK (±SEM) Hyperquad / logK with SBECD (approximate): sodium acetate buffer pH 5.0
Experimental: as §1, §4

[5] = target: T3, bovine serum albumin (BSA) (Bos taurus, UniProt P02769); assay: Fluorescence quenching of bovine serum albumin by mycotoxins; assay type: binding; conditions: for BSA logKSV (±SEM): Stern–Volmer quenching constant KSV in L/mol, linear fitting; for effect of environmental pH on binding to BSA: pH 5.0, 6.5, 7.4, 8.5, AME: pH 8.5 vs acidic and physiological conditions
T3 construct: purchased Merck (Darmstadt, Germany)
Experimental: as §1, §2, §3

[6] = target: T2, human serum albumin (HSA); assay: Ultracentrifugation studies (unbound fraction in presence of HSA); assay type: binding; design: purchased Merck (Darmstadt, Germany)
Experimental: To confirm the results of the quenching studies, the unbound fractions of AS, AME, and AMS were quantified in the presence of HSA. Applying the optimal conditions of ultracentrifugation, we can sediment albumin and albumin-bound molecules without the disruption of ligand–HSA interactions, then the free unbound fraction of the ligand molecule can be quantified from the protein-free supernatant. Samples contained AS, AME, or […] (each 10 μM) with HSA (20, 60, and 180 μM) in PBS (pH 7.4). These samples (900 μL) were centrifuged for 16 h at 170,000 g and 20 °C in 11 × 34 mm PC tubes (Beckman Coulter, Brea, CA, US), employing a Beckman Coulter Optima MAX-XP tabletop ultracentrifuge (with MLA-130 fixed-angle rotor). Then the concentrations of AS, AME, and AMS were directly analyzed from the supernatants with HPLC-FLD (see details in Section 3.7).
Assuming the 1:1 stoichiometry of complex formation, the binding constants (K) were calculated based on the following equation [36]:(3) K=MA/M×A where [M], [A], and [MA] are the molar concentrations (mol/L) of the free unbound mycotoxin, the free unbound albumin, and the mycotoxin–albumin complex, respectively.

[7] = target: T2, human serum albumin (HSA); assay: Ultrafiltration studies with Site I, Site II and Heme site markers; assay type: binding; design: purchased Merck (Darmstadt, Germany); conditions: mycotoxin 20 μM, PBS pH 7.4; for effect on filtered fraction of S-camptothecin (Heme site marker): camptothecin 1.0 μM + HSA 2.0 μM; for effect on filtered fraction of naproxen (Site II marker): naproxen 1.0 μM + HSA 1.5 μM; for effect on filtered fraction of warfarin (Site I marker): warfarin 1.0 μM + HSA 5.0 μM
Experimental: To test the binding sites of mycotoxin metabolites on HSA, ultrafiltration experiments were performed, where warfarin, naproxen, and S-camptothecin were used as Site I, Site II, and Heme site markers, respectively. Ultrafiltration studies were performed as described earlier, with minor modifications. Briefly, warfarin and naproxen samples were filtered using Amicon Ultra centrifugal filters (Merck, Darmstadt, Germany) with a 30 kDa molecular weight cut-off (MWCO) value. Camptothecin barely passed through these filters; therefore, the displacement of this Heme site marker was examined employing Pall Microsep Advance centrifugal devices (MWCO: 10 kDa; VWR, Budapest, Hungary). Each filter unit was washed once with water and once with PBS (pH 7.4). Thereafter, samples were centrifuged with a fixed angle rotor for 10 min at 7500 g and 25 °C. Before ultrafiltration, samples contained warfarin (1.0 μM) + HSA (5.0 μM), naproxen (1.0 μM) + HSA (1.5 μM), or camptothecin (1.0 μM) + HSA (2.0 μM) in the absence and presence of AS, AME, or AMS (each 20 μM) in PBS (pH 7.4). The filters used retain HSA (66.5 kDa) and albumin-bound ligands. Therefore, the elevated concentration of the site marker in the filtrate indicates its displacement from the protein [30, 36]. The concentrations of warfarin and camptothecin in the filtrate were analyzed by HPLC-FLD, while naproxen was quantified by HPLC-UV as has been previously reported.

rat serum albumin (RSA) [8] = target: T4, rat serum albumin (RSA) (Rattus norvegicus, UniProt P02770); assay: Fluorescence quenching of rat serum albumin by mycotoxins; assay type: binding; conditions: for RSA logKSV (±SEM): Stern–Volmer quenching constant KSV in L/mol, linear fitting
T4 construct: purchased Merck (Darmstadt, Germany)
Experimental: as §1, §2, §3

rat serum albumin (RSA) [9] = target: T4, rat serum albumin (RSA); design: method as in PMID 31083629; conditions: previous study; cited from earlier work
[10] = target: T2, human serum albumin (HSA); conditions: cited from earlier work
[11] = target: T2, human serum albumin (HSA); design: purchased Merck (Darmstadt, Germany); method as in PMID 31083629; conditions: previous study; cited from earlier work
[12] = binding constant K in L/mol, fluorescence quenching, Hyperquad non-linear fitting, read-out: PSA logK (±SEM) (converted)
[13] = binding constant K in L/mol, fluorescence quenching, Hyperquad non-linear fitting, PBS pH 7.4, read-out: HSA logK (±SEM) (converted)
[14] = binding constant K in L/mol, fluorescence quenching, Hyperquad non-linear fitting, read-out: BSA logK (±SEM) (converted)
[15] = mycotoxin 10 μM, HSA 20, 60, 180 μM, PBS pH 7.4, Equation (3), 1:1 stoichiometry, read-out: logK of mycotoxin–HSA complexes (ultracentrifugation) (converted)
[16] = binding constant K in L/mol, fluorescence quenching, Hyperquad non-linear fitting, read-out: RSA logK (±SEM) (converted)

T2 sequence (P02768 25-609): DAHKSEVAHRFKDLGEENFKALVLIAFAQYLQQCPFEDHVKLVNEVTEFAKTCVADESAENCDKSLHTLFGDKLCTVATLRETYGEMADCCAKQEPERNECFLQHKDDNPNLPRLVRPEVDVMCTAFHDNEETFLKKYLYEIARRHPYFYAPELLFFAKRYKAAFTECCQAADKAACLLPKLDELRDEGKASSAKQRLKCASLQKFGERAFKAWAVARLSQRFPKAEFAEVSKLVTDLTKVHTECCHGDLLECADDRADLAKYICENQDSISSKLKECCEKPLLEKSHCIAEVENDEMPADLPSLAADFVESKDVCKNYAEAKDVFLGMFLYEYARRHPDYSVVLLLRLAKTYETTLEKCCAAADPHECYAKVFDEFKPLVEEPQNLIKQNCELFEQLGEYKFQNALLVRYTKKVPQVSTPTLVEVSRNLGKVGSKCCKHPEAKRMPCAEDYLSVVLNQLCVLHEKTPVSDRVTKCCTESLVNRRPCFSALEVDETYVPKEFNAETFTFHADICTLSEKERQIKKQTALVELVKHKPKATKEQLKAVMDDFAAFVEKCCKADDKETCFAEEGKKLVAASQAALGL
T3 sequence (P02769 25-607): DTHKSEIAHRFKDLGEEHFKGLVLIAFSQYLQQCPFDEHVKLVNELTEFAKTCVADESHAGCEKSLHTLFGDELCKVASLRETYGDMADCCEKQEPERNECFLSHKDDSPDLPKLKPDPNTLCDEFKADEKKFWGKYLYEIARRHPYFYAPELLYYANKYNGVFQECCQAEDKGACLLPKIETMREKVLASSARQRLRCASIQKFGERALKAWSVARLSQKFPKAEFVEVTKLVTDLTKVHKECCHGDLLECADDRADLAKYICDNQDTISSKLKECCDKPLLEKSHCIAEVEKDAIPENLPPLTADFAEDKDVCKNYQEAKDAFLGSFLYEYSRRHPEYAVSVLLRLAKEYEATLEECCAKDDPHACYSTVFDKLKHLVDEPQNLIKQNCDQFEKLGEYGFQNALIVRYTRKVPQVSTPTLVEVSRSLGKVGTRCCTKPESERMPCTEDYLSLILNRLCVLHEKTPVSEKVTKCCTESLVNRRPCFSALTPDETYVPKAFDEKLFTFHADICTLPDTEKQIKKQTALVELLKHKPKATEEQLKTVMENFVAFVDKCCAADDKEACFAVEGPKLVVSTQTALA
T1 sequence (P08835 25-607): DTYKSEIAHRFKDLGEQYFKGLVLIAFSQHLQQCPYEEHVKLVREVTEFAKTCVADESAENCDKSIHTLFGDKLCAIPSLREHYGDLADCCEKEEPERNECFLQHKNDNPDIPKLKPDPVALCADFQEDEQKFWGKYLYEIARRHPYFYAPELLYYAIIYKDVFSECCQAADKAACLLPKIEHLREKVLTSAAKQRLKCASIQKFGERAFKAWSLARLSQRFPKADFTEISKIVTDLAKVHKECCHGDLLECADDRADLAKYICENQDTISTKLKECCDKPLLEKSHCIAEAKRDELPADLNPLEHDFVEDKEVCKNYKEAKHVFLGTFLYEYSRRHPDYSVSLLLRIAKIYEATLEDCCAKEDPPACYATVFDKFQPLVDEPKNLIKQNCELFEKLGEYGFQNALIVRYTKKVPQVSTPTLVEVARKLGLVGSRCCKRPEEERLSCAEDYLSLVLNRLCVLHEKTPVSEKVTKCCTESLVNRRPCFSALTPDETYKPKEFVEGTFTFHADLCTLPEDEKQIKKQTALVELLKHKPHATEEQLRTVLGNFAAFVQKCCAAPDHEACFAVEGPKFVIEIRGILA
T4 sequence (P02770 25-608): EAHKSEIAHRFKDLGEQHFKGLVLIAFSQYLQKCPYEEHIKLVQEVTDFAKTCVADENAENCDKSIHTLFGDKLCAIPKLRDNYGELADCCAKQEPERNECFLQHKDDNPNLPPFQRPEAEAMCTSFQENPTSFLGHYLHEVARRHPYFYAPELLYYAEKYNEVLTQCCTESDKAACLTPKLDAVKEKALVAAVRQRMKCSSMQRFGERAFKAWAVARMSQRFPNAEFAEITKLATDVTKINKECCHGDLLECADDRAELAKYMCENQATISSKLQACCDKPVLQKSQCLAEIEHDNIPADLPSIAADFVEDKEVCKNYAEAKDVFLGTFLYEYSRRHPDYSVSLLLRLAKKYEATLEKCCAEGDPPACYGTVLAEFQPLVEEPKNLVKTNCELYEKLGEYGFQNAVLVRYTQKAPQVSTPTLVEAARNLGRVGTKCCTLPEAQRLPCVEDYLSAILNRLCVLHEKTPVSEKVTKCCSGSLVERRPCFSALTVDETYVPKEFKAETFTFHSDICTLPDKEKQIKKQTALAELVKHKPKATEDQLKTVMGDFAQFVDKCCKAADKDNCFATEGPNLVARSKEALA

| Compound | PSA logKSV (±SEM) [1] | Kd [1, 12] [nM] | HSA logKSV (±SEM) ([2]; PBS pH 7.4) | Kd [2, 13] [nM] | SGD logK (±SEM) BH-Plot [3] | SGD logK (±SEM) Hyperquad [3] | logK with SGD (approximate) [3] | logK of mycotoxin–SGD complexes at pH 10.0 [3] | SBECD logK (±SEM) BH-Plot [4] | SBECD logK (±SEM) Hyperquad [4] | logK with SBECD (approximate) [4] | BSA logKSV (±SEM) [5] | Kd [5, 14] [nM] | effect of environmental pH on binding to BSA [5] | Kd [6, 15] [nM] | effect on filtered fraction of S-camptothecin (Heme site marker) [7] | effect on filtered fraction of naproxen (Site II marker) [7] | effect on filtered fraction of warfarin (Site I marker) [7] | RSA logKSV (±SEM) (rat serum albumin (RSA) [8]) | Kd (rat serum albumin (RSA) [8]; [16]) [nM] | further results |
| --- | --- | --- | --- | --- | --- | --- | --- | --- | --- | --- | --- | --- | --- | --- | --- | --- | --- | --- | --- | --- | --- |
| Cc1cc(OS(=O)(=O)O)cc2oc(=O)c3c(O)cc(O)cc3c12 [AS, Alternariol-3-sulfate ammonium salt] | 5.57 ± 0.02 | 1660 | 5.44 ± 0.07 | 2450 | 2.83 ± 0.01 | 2.99 ± 0.03 | ≈ 3 | 3.18 ± 0.58 | 3.02 ± 0.01 | 3.02 ± 0.03 | ≈ 3 | 5.60 ± 0.01 | 1620 | only minor changes | 3160 | marked increases | lower but significant (p < 0.01) effect | marked increases | 5.85 ± 0.03 | 832 |  |
| COc1cc(O)c2c(=O)oc3cc(OS(=O)(=O)O)cc(C)c3c2c1 [AMS, alternariol-9-monomethylether-3-sulfate ammonium salt] | 5.60 ± 0.02 | 1660 | 5.42 ± 0.06 | 2630 | 2.95 ± 0.05 | 3.21 ± 0.04 | ≈ 3 | 3.39 ± 0.10 | 2.96 ± 0.01 | 3.08 ± 0.01 | ≈ 3 | 5.81 ± 0.01 | 933 | only minor changes | 3240 | large | moderate | did not affect | 5.92 ± 0.03 | 741 |  |
| Cc1cc(O)cc2oc(=O)c3c(O)cc(O)cc3c12 [AOH, Alternariol] |  |  |  |  |  |  |  |  |  |  |  |  |  |  |  |  |  |  |  |  | affinity for rat albumin compared to human or porcine albumins (rat serum albumin (RSA) [9]): almost eight-fold higher affinity; logK of AOH–HSA complex [10]: 5.6; displacement of naproxen (Site II marker) from HSA [11]: slightly displaced; displacement of warfarin (Site I marker) from HSA [11]: strongly displaced; effect on filtered fraction of camptothecin (Heme site marker) [11]: did not affect |
| COc1cc(O)c2c(=O)oc3cc(O)cc(C)c3c2c1 [AME, alternariol-9-monomethylether] | 4.73 ± 0.06 |  | 4.86 ± 0.05 |  | 3.95 ± 0.01 | 4.06 ± 0.01 |  | 4.25 ± 0.06 | 3.46 ± 0.01 | 3.56 ± 0.01 |  | 4.93 ± 0.05 |  | approximately ten-fold higher affinity |  | no or only slight effects | no or only slight effects | statistically significant (p < 0.05) impact | 5.15 ± 0.06 |  | Kd [1]: 14800 nM; Kd [2]: 11500 nM; stability of AME–SGD complex compared to CD complexes of the sulfate metabolites ([3]; pH 5.0): ten-fold; stability of AME–SBECD complex compared to CD complexes of the sulfate metabolites ([4]; pH 5.0): three-fold; Kd [5]: 9120 nM; Kd [6]: 4570 nM; Kd (rat serum albumin (RSA) [8]): 5130 nM |
